Values of other authors in US7122567B2, “Heterocyclic amide derivatives having glycogen phosphorylase inhibitory activity” (AstraZeneca AB, priority 2002, dated 2006).

Tests used:
[1] = conscious dogs, following a glucagon challenge
[2] = db/db and ob/ob mice following treatment

Compound | arterial plasma glucose [1] | hepatic glucose output [1] | glucagon stimulated glycogenolysis (hepatocytes) | glucose output (hepatocytes) | plasma glucose concentration [2]
CCN1C(C)=C(C(=O)OC(C)C)C(c2ccccc2Cl)C2=C1COC2=O (centres unmarked) [Bay R 3401] | reduced significantly | reduced significantly |  |  | 
CN(C)C(=O)[C@H](O)[C@H](Cc1ccccc1)NC(=O)c1cc2cc(Cl)ccc2[nH]1 [CP91149] |  |  | reduce | reduce | reduced, in a dose related manner
O=C(N[C@@H](Cc1ccc(F)cc1)C(=O)N1CCC(O)CC1)c1cc2cc(Cl)ccc2[nH]1 [CP320626] |  |  | reduce | reduce | reduced, in a dose related manner
